Reference: publication PMC6017931, “A Novel Class of Schistosoma mansoni Histone Deacetylase 8 (HDAC8) Inhibitors Identified by Structure-Based Virtual Screening and In Vitro Testing” (Molecules : A Journal of Synthetic Chemistry and Natural …, 2018)

Tests used:
smHDAC8 = molecular target: T1, smHDAC8 (Schistosoma mansoni, UniProt A5H660); experiment: smHDAC8 in vitro inhibition assay; type: biochemical; conditions: for IC50: mean ± S.E., Fluor de Lys-HDAC8 substrate 50 µM, 90 min at 37 °C
T1 construct: made in house; host or cells: E. coli
T1 sequence (A5H660 1-440): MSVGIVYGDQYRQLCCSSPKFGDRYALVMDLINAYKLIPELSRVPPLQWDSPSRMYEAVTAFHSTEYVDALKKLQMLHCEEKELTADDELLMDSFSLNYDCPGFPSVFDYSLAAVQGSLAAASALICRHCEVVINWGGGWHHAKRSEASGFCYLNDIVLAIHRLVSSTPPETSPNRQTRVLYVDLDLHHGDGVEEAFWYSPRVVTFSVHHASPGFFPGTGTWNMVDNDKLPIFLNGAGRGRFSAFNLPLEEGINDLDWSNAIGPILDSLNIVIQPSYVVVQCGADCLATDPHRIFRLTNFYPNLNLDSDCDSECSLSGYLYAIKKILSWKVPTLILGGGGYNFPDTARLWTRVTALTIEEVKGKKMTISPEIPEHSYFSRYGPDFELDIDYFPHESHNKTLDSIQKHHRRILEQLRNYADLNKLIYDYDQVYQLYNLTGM
Experimental: The biological assay was carried out using purified smHDAC8 protein and the small molecule substrate Z(Tfa)Lys-AMC (ZMTFAL) as previously reported. To assess the selectivity, the selected compounds were further tested against the human orthologue hsHDAC8 as well as the major human HDAC isoforms (HDAC1 and -6) using an established in vitro assay.
Recombinant human HDAC1 and HDAC6 were purchased from BPS Bioscience. Recombinant human HDAC8 was expressed and purified as previously described. Recombinant smHDAC8 enzyme was produced in E. coli cells and purified by a method previously described by us. Inhibition assays of smHDAC8 and human HDACs were performed as already described in previous publications. Briefly, the commercial Fluor de Lys kit (BML-KI178) was used for testing inhibition of smHDAC8 and hsHDAC8. Test compounds, Fluor de Lys-HDAC8 substrate (50 µM) and enzyme were incubated for 90 min at 37 °C with subsequent addition of 50 μL Developer II (BML-KI176) and further incubation for 45 min at 30 °C. Fluorescence was measured in a plate reader (BMG Polarstar) with excitation at λ = 390 nm and emission at λ = 460 nm. Inhibition tests of human HDAC1 and 6 were conducted using ZMAL (Cbz-(Ac)Lys-AMC) as substrate and trypsin as a developer. […] Trichostatin A (2 µM) was used in both assays to stop the reaction. Fluorescence was measured similarly as mentioned above. IC50 values were determined with OriginPro (version 9.0.0, Northampton, MA, USA). IC50 Values in Table 1 are given as mean ± S.E.

hsHDAC8 = molecular target: T2, hsHDAC8 (Homo sapiens, UniProt Q9BY41); experiment: hsHDAC8 in vitro inhibition assay; type: biochemical; conditions: mean ± S.E.; Fluor de Lys-HDAC8 substrate 50 µM, 90 min at 37 °C
T2 construct: made in house
T2 sequence (Q9BY41 1-377): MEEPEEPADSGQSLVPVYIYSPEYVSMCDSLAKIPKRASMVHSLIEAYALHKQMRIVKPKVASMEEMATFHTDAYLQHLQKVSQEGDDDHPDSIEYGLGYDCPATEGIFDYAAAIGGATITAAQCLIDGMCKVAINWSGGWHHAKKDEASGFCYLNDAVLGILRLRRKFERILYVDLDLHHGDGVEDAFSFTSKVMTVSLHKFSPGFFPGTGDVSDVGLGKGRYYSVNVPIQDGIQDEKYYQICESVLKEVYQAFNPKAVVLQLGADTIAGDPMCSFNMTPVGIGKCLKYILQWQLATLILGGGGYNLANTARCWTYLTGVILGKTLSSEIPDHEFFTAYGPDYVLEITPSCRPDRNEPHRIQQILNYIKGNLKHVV
Experimental: (§1) The biological assay was carried out using purified smHDAC8 protein and the small molecule substrate Z(Tfa)Lys-AMC (ZMTFAL) as previously reported. To assess the selectivity, the selected compounds were further tested against the human orthologue hsHDAC8 as well as the major human HDAC isoforms (HDAC1 and -6) using an established in vitro assay. […] Recombinant human HDAC1 and HDAC6 were purchased from BPS Bioscience. Recombinant human HDAC8 was expressed and purified as previously described. Recombinant smHDAC8 enzyme was produced in E. coli cells and purified by a method previously described by us. Inhibition assays of smHDAC8 and human HDACs were performed as already described in previous publications. Briefly, the commercial Fluor de Lys kit (BML-KI178) was used for testing inhibition of smHDAC8 and hsHDAC8. Test compounds, Fluor de Lys-HDAC8 substrate (50 µM) and enzyme were incubated for 90 min at 37 °C with subsequent addition of 50 μL Developer II (BML-KI176) and further incubation for 45 min at 30 °C. Fluorescence was measured in a plate reader (BMG Polarstar) with excitation at λ = 390 nm and emission at λ = 460 nm. Inhibition tests of human HDAC1 and 6 were conducted using ZMAL (Cbz-(Ac)Lys-AMC) as substrate and trypsin as a developer. […] Trichostatin A (2 µM) was used in both assays to stop the reaction. Fluorescence was measured similarly as mentioned above. IC50 values were determined with OriginPro (version 9.0.0, Northampton, MA, USA). IC50 Values in Table 1 are given as mean ± S.E.

hsHDAC1 = molecular target: T3, hsHDAC1 (Homo sapiens, UniProt Q13547); experiment: hsHDAC1 in vitro inhibition assay; type: biochemical; conditions: mean ± S.E.; ZMAL 10.5 µM, 90 min at 37 °C
T3 construct: purchased BPS Bioscience
Experimental: as §1

hsHDAC6 = molecular target: T4, hsHDAC6 (Homo sapiens, UniProt Q9UBN7); experiment: hsHDAC6 in vitro inhibition assay; type: biochemical; conditions: for IC50: mean ± S.E., ZMAL 10.5 µM, 90 min at 37 °C
T4 construct: purchased BPS Bioscience
T4 sequence (Q9UBN7 1-1215): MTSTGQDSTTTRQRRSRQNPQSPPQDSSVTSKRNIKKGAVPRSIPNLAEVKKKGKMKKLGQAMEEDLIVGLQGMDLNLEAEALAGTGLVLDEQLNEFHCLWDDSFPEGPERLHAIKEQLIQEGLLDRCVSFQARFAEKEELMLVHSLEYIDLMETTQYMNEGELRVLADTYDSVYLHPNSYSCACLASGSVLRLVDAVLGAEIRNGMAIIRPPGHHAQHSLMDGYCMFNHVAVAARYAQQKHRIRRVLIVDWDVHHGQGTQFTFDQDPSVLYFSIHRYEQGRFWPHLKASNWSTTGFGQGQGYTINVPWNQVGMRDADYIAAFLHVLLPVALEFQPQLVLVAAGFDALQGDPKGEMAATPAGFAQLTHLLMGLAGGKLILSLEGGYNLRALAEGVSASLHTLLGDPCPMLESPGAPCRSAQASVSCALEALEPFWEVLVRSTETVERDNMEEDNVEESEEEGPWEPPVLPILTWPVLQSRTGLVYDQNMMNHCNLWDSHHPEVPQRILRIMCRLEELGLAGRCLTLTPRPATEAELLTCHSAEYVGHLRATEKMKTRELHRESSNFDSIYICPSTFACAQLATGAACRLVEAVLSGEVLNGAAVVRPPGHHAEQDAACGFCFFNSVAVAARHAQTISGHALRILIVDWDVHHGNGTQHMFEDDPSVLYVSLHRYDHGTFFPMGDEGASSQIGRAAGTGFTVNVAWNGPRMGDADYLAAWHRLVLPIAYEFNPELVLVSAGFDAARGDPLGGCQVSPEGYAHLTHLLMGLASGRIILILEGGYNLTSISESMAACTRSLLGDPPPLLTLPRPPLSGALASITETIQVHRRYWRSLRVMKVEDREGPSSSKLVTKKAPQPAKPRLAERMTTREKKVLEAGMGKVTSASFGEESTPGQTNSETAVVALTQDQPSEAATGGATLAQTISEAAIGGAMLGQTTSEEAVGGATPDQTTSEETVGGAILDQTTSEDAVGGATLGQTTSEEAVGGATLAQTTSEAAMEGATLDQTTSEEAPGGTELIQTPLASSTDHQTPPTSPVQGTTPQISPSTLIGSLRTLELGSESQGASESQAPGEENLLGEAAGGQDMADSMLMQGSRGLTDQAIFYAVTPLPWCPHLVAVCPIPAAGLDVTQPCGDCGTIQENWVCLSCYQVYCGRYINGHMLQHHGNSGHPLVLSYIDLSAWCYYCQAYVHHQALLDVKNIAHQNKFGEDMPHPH
Experimental: as §1

S. mansoni schistosomula [1] = experiment: Apoptosis induction in schistosomula (TUNEL); type: cell-based, Schistosoma mansoni; conditions: 100 µM, after 3 days
Experimental: The compound J1036 induced dose-dependent apoptosis in the infective larval stage (schistosomula) of S. mansoni, affecting 67% of the larvae after 3 days at a dose of 100 µM (Figure 4), whereas a polar hydroxamate derivative (J1038) identified by a previous virtual screening was ineffective in the same assay (data not shown here). […]. Although we cannot directly correlate the inhibitory activity on smHDAC8 with the lethal effect of J1036 on schistosomula, the high level of expression of this class I HDAC [21] in the parasite, and its validation as a stand-alone target by transcript knockdown, mean that its inhibition is sufficient to induce the effects observed.
Figure 4 J1036 induces apoptosis in S. mansoni schistosomula in vitro. (A) Dose-dependent induction of apoptosis determined by dUTP nick end labeling (TUNEL) shown as the percentage of parasites positively labeled; (B) TUNEL staining of schistosomula treated with 100 µM J1036 for 3 days. Parasites were counterstained using 4′,6-Diamidino-2-Phenylindole (DAPI).
The capacity of compounds J1036 and J1038 to induce apoptosis in S. mansoni schistosomula was measured using dUTP nick end labelling (TUNEL) and the In Situ Cell Death Detection Kit TMR (Roche Applied Science, Penzberg, Germany) exactly as previously described.

S. mansoni schistosomula [2] = tested on: S. mansoni schistosomula; set-up: method as in PMID 24086136; conditions: at 100 µM; cited from earlier work

T3 sequence (Q13547 whole entry): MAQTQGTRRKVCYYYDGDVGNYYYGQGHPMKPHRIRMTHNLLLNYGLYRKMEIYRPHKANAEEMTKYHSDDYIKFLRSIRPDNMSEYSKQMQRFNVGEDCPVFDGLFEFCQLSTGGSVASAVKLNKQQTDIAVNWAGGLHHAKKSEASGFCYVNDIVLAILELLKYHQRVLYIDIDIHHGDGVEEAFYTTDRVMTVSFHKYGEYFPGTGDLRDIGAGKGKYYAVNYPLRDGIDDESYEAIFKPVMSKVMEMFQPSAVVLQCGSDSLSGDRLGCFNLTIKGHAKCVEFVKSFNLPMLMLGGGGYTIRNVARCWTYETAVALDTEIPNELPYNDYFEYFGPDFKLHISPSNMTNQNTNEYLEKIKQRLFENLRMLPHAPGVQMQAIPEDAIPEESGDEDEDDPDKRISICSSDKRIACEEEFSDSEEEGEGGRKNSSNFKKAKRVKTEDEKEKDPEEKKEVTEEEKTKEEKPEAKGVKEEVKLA

Row | IC50 (smHDAC8) [µM] | IC50 (hsHDAC8) [µM] | IC50 (hsHDAC1) [µM] | IC50 (hsHDAC6) [µM] | inhibitory activity against HDAC6 (in words) (hsHDAC6) | inhibition at 25 µM (smHDAC8; at 25 µM) [%] | SMILES | apoptosis, percentage of larvae affected (TUNEL positive) (S. mansoni schistosomula [1]) [%] | apoptosis, percentage of larvae affected (S. mansoni schistosomula [2]) [%]
1 | 4.4 ± 0.17 | 0.49 ± 0.18 | 6.76 ± 0.97 | 5.02 ± 0.31 |  |  | CCCCCC(=O)N(O)C1CC(=O)N(c2ccc(Cl)cc2)C1=O (stereo not shown) [J1036] | 67 | 
2 | 13.2 ± 1.85 | 2.62 ± 0.19 | 42.1 ± 2.2 | 6.2 ± 0.34 |  |  | CCCCC(=O)N(O)C1CC(=O)N(c2ccccc2)C1=O (stereo not shown) [J1057] |  | 
3 | 20.3 ± 2.78 | 3.99 ± 0.74 | 26 ± 2.4 | 6.2 ± 0.41 |  |  | CCCCCC(=O)N(O)C1CC(=O)N(c2ccccc2)C1=O (stereo not shown) [J1058] |  | 
4 | 11.5 ± 0.91 | 1.8 ± 0.24 | 5 ± 0.42 | 0.86 ± 0.12 | submicromolar |  | CCCCCCC(=O)N(O)C1CC(=O)N(c2ccccc2)C1=O (stereo not shown) [J1060] |  | 
5 | 5.5 ± 0.7 | 7.69 ± 3.3 | 3.98 ± 0.45 | 2.65 ± 0.29 |  |  | CCCCCCC(=O)N(O)C1CC(=O)N(c2ccc(Cl)cc2)C1=O (stereo not shown) [J1061] |  | 
6 | 5.9 ± 1.6 | 7.72 ± 4.42 | 1.42 ± 0.13 | 0.77 ± 0.09 | submicromolar |  | CCCCCCC(=O)N(O)C1CC(=O)N(c2ccc(Br)cc2)C1=O (stereo not shown) [J1063] |  | 
7 | 7.79 ± 0.28 | 2.08 ± 0.34 | 4.3 ± 0.46 | 0.6 ± 0.12 | submicromolar |  | CCCCCCC(=O)N(O)C1CC(=O)N(c2ccc(F)cc2)C1=O (stereo not shown) [J1064] |  | 
8 | 20.2 ± 2.7 | 3.96 ± 0.6 | 8.4 ± 0.28 | 1.57 ± 0.37 |  |  | CCCCCCC(=O)N(O)C1CC(=O)N(c2ccc(C)cc2)C1=O (stereo not shown) [J1065] |  | 
9 |  |  |  |  |  | 13 | CCCCCCC(=O)N(O)C1CC(=O)N(c2cccc(Cl)c2C)C1=O (stereo not shown) [J1066] |  | 
10 |  |  |  |  |  |  | O=C(NO)c1sc2ccccc2c1Cl [J1075] |  | 54
11 |  |  |  |  |  |  | O=C(CCCCCCC(=O)Nc1ccccc1)NO [SAHA] |  | 43

Row | SMILES | IC50 (smHDAC8) [µM] | IC50 (hsHDAC8) [µM] | IC50 (hsHDAC1) [µM] | IC50 (hsHDAC6) [µM] | inhibitory activity against HDAC6 (in words) (hsHDAC6) | inhibition at 25 µM (smHDAC8; at 25 µM) [%] | apoptosis, percentage of larvae affected (TUNEL positive) (S. mansoni schistosomula [1]) [%] | apoptosis, percentage of larvae affected (S. mansoni schistosomula [2]) [%]
12 | COc1ccc(C(=O)NO)cc1NC(=O)c1ccc(-c2ccccc2)cc1 [TH65, reference compound] | 0.075 ± 0.025 | 0.026 ± 0.017 | 6.3 ± 2.1 | 0.39 ± 0.002 |  |  |  | 
